# ChEMBL document CHEMBL4359880, “PROTACs and Targeted Protein Degradation for Treating ALK-Mediated Cancers” (2019)
# Legend:
# SU-DHL-1 [1] = test: Cytotoxicity against human SUDHL1 cells assessed as cell growth at 12 nM incubated for 2.5 days by CCk8 assay relative to control; type: functional; details: SU-DHL-1, 60 h
# SU-DHL-1 [2] = test: Cytotoxicity against human SUDHL1 cells assessed as cell growth at 40 nM incubated for 2.5 days by CCk8 assay relative to control; type: functional; details: SU-DHL-1, 60 h
# SU-DHL-1 [3] = test: Cytotoxicity against human SUDHL1 cells assessed as cell growth at 100 nM incubated for 2.5 days by CCk8 assay relative to control; type: functional; details: SU-DHL-1, 60 h
# [4] = molecular target: T1, von Hippel-Lindau disease tumor suppressor/ALK tyrosine kinase receptor (Homo sapiens) (UniProt Q9UM73+P40337); test: Protac activity at VHL/ALK in human SUDHL1 cells assessed as increase in degradation of ALK at 30 nM by Western blot analysis relative to control; type: cell-based
# [5] = molecular target: T1, von Hippel-Lindau disease tumor suppressor/ALK tyrosine kinase receptor (Homo sapiens); test: Protac activity at VHL/ALK in human NCI-H3122 cells assessed as increase in degradation of ALK at 500 nM by Western blot analysis relative to control; type: cell-based
# T1 sequence (P40337 whole entry partner): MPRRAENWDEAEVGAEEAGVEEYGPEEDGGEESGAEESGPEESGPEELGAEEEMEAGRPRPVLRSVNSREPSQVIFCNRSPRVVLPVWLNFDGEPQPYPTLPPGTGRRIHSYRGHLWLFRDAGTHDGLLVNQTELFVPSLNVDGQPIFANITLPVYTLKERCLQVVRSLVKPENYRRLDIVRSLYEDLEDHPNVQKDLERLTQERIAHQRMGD
# T1 sequence (Q9UM73 19-1620 limits assumed): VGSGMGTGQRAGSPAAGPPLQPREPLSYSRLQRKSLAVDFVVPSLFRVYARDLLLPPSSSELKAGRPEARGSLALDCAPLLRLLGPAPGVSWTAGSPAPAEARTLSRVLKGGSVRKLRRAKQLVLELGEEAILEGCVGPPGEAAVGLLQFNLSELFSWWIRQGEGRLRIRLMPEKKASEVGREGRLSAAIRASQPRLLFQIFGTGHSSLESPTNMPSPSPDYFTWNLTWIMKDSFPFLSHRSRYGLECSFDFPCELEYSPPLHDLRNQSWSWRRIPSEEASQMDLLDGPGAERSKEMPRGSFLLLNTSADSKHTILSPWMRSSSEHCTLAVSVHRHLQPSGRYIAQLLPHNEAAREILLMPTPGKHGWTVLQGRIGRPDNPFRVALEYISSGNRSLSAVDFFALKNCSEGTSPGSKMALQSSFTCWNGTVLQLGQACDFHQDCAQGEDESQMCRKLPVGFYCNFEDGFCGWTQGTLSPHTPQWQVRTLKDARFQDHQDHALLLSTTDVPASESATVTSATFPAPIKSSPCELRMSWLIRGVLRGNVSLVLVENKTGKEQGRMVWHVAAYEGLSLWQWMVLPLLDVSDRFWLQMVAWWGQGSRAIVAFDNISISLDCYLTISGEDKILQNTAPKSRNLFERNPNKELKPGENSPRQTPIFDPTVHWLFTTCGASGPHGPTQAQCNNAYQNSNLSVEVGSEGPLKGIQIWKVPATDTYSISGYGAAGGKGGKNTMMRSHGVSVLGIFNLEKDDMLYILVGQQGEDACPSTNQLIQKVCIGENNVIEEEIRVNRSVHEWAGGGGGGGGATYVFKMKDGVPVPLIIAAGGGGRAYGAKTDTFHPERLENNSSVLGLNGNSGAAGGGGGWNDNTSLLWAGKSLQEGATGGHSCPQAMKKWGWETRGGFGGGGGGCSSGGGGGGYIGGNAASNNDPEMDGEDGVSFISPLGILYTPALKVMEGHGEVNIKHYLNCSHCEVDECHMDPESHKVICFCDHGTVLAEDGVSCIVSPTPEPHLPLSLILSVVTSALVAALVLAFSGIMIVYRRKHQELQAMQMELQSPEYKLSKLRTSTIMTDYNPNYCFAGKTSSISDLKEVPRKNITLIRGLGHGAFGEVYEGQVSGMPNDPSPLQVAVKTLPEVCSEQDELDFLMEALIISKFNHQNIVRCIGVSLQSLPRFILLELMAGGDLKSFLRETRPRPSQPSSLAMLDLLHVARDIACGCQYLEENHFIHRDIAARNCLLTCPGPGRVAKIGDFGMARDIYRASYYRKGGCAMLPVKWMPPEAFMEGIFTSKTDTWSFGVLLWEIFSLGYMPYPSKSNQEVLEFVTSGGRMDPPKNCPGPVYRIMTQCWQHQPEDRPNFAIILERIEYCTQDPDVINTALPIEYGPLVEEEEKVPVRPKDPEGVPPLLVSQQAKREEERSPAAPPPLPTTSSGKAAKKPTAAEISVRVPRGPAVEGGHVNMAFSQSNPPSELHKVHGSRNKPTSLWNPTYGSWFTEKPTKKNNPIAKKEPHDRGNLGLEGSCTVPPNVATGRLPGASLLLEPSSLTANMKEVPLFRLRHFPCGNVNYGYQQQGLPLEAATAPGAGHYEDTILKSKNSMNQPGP
Compound,"growth, % of control at 0.012 µM (SU-DHL-1 [1]) [%]","growth, % of control at 0.04 µM (SU-DHL-1 [2]) [%]","growth, % of control at 0.1 µM (SU-DHL-1 [3]) [%]",Activity [4] [%],Activity [5] [%]
Cc1cc(Nc2ncc(Cl)c(Nc3ccccc3S(=O)(=O)C(C)C)n2)c(OC(C)C)cc1C1CCN(CC(=O)NCCOCCOCCOCCOCCOCCNc2cccc3c2C(=O)N(C2CCC(=O)NC2=O)C3=O)CC1 (centres undefined),94.5,47.5,3.9,> 80,–
Cc1cc(Nc2ncc(Cl)c(Nc3ccccc3S(=O)(=O)C(C)C)n2)c(OC(C)C)cc1C1CCN(C(=O)COCCOCC(=O)N[C@H](C(=O)N2C[C@H](O)C[C@H]2C(=O)N[C@@H](C)c2ccc(-c3scnc3C)cc2)C(C)(C)C)CC1,–,–,–,–,> 80
Cc1cc(Nc2ncc(Cl)c(Nc3ccccc3S(=O)(=O)C(C)C)n2)c(OC(C)C)cc1C1CCN(CC(=O)NCCOCCOCCOCCOCCNc2cccc3c2C(=O)N(C2CCC(=O)NC2=O)C3=O)CC1 (centres undefined),97.7,67,3.5,> 80,–
Cc1cc(Nc2ncc(Cl)c(Nc3ccccc3S(=O)(=O)C(C)C)n2)c(OC(C)C)cc1C1CCN(CC(=O)NCCNc2cccc3c2C(=O)N(C2CCC(=O)NC2=O)C3=O)CC1 (centres undefined),80.6,30.5,2.1,> 80,–
Cc1cc(Nc2ncc(Cl)c(Nc3ccccc3S(=O)(=O)C(C)C)n2)c(OC(C)C)cc1C1CCN(C(=O)CCCC(=O)N[C@H](C(=O)N2C[C@H](O)C[C@H]2C(=O)N[C@@H](C)c2ccc(-c3scnc3C)cc2)C(C)(C)C)CC1,–,–,–,–,> 80
